{"source": "patent US20240216343A1", "about": "“ENDOTHELIAL IK AND SK CHANNEL ACTIVATION TO TREAT PULMONARY HYPERTENSION” (UNIVERSITY OF VIRGINIA PATENT FOUNDATION, priority 2023, published 2024)", "key": {"[1]": {"tested_on": "large PAs", "conditions": "rats exposed to chronic hypoxia; reference (49); cited from earlier work"}, "[2]": {"tested_on": "fourth-order PAs", "test": "Pressure myography of mouse fourth-order PAs", "text": "Mouse fourth-order PAs (˜50 μm) were cannulated on glass micropipettes in a pressure myography chamber (The Instrumentation and Model Facility; University of Vermont; Burlington; VT; USA) and pressurized to a physiological pressure of 15 mm Hg (24). Briefly, freshly dissected lungs were placed in ice cold HEPES buffer in a dissection plate. The left lung was stretched and pinned down, with ventral side facing up. First, pulmonary veins, and then the airway were cut open to gain access to the pulmonary arteries underneath. Once PAs were visible, they were gently separated from surrounding tissue (25). Arteries were superfused with bicarbonate-physiological salt solution (PSS; 119 mmol/L NaCl; 4.7 mmol/L KCl; 1.2 mmol/L KH2PO4; 1.2 mmol/L MgCl2 hexahydrate; 2.5 mmol/L CaCl2) dihydrate; 7 mmol/L dextrose; and 24 mmol/L NaHCO3) at 37° ° C. and bubbled with 20% O2/5% CO2 to maintain the pH at 7.4. Approximately 20% PAs from normal mice develop myogenic tone, whereas ˜65% PA from Su+CH mice show myogenic tone at 15 mm Hg. Due to the relatively small percentage of PAs from normal mice showing myogenic tone, we pre-constricted all PAs with 30 nmol/L U46619 (a thromboxane A2 receptor agonist). […] U46619 was added to the chamber immediately, before the arteries could develop myogenic tone. Before measuring vascular reactivity, arteries were treated with NS309 (1 μmol/L), a direct activator of endothelial IK/SK channels, to assess endothelial health. […] Changes in arterial diameter were recorded at a 60-ms frame rate using a charge-coupled device camera and edge-detection software (IonOptix LLC; Westwood; MA; USA) (11, 26). At the end of each experiment, Ca^2+-free PSS (119 mmol/L NaCl; 4.7 mmol/L KCl; 1.2 mmol/L KH2PO4; 1.2 mmol/L MgCl2 hexahydrate; 7 mmol/L dextrose; 24 mmol/L NaHCO3; and 5 mmol/L EGTA) was applied to assess the maximum passive diameter. Percent constriction was calculated by:\n[formula] • where Diameterbefore is the diameter of the artery before treatment and Diameterafter is the diameter after treatment. Percent dilation was calculated by:\n[formula] • where Diameterbasal is the stable diameter before drug treatment, Diameterdilated is the diameter after drug treatment, and Diameterca-free is the maximum passive diameter."}, "[3]": {"tested_on": "IK/SK channels in SMCs from PAs", "test": "Whole-cell patch-clamp in freshly isolated SMCs from small PAs", "type": "cell-based, mouse", "conditions": "TRAM-34 1 μmol/L and Apa 300 nmol/L added together after NS309 1 μmol/L; SMCs from control or Su+CH mice", "protocol": "For SMC isolation (27), arterial segments were transferred to a 12×75 mm borosilicate glass culture tube containing 1 mL dissociation solution (145 mmol/L NaCl; 4 mmol/L KCl; 1 mmol/L MgCl2; 10 mmol/L HEPES; 0.05 mmol/L CaCl2), 10 mmol/L glucose; pH 7.3) and 0.5 mg/mL bovine serum albumin (BSA) and incubated for 10 minutes at room temperature (˜24° C.). The solution was then replaced with 1 mL dissociation solution containing 1 mg/mL papain (Sigma Aldrich) and 0.5 mg/mL dithiothreitol (Sigma Aldrich), and incubation was continued at 37° C. for 20 minutes. […]\nWhole-cell currents were measured at room temperature using conventional whole-cell patch-clamp electrophysiology. […] The pipette solution for conventional patch clamp consisted of 10 mmol/L HEPES, 123.2 mmol/L KCl, 10 mmol/L NaCl, 5.5 mmol/L MgCl2, 0.2 mmol/L CaCl2) and 5 mmol/L HEDTA (adjusted to pH 7.2 with 16.8 mm KOH) and contained 3 μm free-Ca^2+ and 1 mmol/L free-Mg^2+, as calculated using the Max-Chelator program (Chris Patton; Stanford University; Stanford; CA; USA). […] Data were acquired using a Multiclamp 700B amplifier connected to a Digidata 1550B system and analyzed using Clampfit 11.1 software (Molecular Devices, San Jose, CA, USA).\nNS309-induced ionic currents were measured in freshly isolated SMCs (FIG. 4A) from PAs in whole-cell patch-clamp experiments (FIGS. 4B and 4C)."}, "[4]": {"tested_on": "IK/SK channels", "conditions": "reference (37); cited from earlier work"}, "[5]": {"conditions": "cited from earlier work"}, "[6]": {"conditions": "reference (33); cited from earlier work"}, "[7]": {"tested_on": "Su+CH mouse model of PH", "test": "Chronic treatment: RVSP, Fulton index and PA remodeling (histology, immunostaining)", "type": "in vivo", "protocol": "(§1) PH was induced by exposing C57BL6/J mice to chronic hypoxia (CH; 10% 02: 4 weeks) with concurrent treatment with the receptor tyrosine kinase inhibitor, SU5416 (20 mg·kg^−1), administered subcutaneously (s.c.) once a week (20). SU5416 was dissolved in DMSO/PEG 400 (50/50). Mice were exposed to CH conditions in a vinyl hypoxic chamber (Coy Laboratory Products; Inc. Grass Lake; MI; USA) connected to an auto purge airlock inlet. Oxygen concentration in the glove box was regulated by an oxygen controller and oxygen sensor (Coy Laboratory Products, Inc.). Control mice were maintained in room air for 4 weeks.\nFor PA remodeling studies, mice in the experimental group were treated with the IK/SK channel activator, SKA-31 (30 mg·kg^−1; i.p.), twice a day for the final 7 days of Su+CH exposure. Control mice were exposed to Su+CH for 4 weeks but were injected with vehicle instead of SKA-31. At the end of week 4 of Su+CH exposure, mice were euthanized with pentobarbital (90 mg·kg^−1; i.p.; UVA Hospital Pharmacy) and left lungs were perfused with the NO donor and fast-acting vasodilator, SNP (50 μmol/L; Sigma Aldrich), followed by incubation overnight at room temperature with 4% paraformaldehyde (PFA) for histology and immunostaining.\n(§2) Mice were anesthetized with pentobarbital (50 mg·kg^−1; i.p.), and bupivacaine HCl (100 μL of 0.25% solution; s.c.) was used to numb the dissection site on the mouse. RVSP was measured as an indirect indicator of PAP (18, 21). Mice were cannulated with a Mikro-Tip pressure catheter (SPR-671; Millar Instruments; Houston; TX; USA), connected to a bridge amp (FE221) and a PowerLab 4/35 4-channel recorder (ADInstruments; Colorado Springs; CO; USA), through the external jugular vein into the right ventricle. Right ventricular pressure was acquired and analyzed using LabChart8 software (ADInstruments). In the subgroup of mice treated with SKA-31 (30 mg·kg^−1; i.p.), RVSP was measured before SKA-31 injection and 20 minutes after. A stable 3-minute recording was acquired for all animals, and a 1-minute continuous segment was used for data analysis. Where necessary, traces were digitally filtered using a low-pass filter at a cut-off frequency of 50 Hz. At the end of experiments, mice were euthanized, and their hearts were isolated for right ventricular hypertrophy analysis. Right ventricular hypertrophy was determined by calculating the Fulton index, a ratio of the right ventricular (RV) heart weight over the left ventricular (LV) plus septum (S) weight (RV/LV+S).\nIsolated left lungs were perfused with PBS containing 50 μmol/L SNP and fixed in 4% PFA overnight at room temperature before paraffin embedding and sectioning. After sectioning paraffinized lungs, sections (5-μm thick) were deparaffinized and incubated in endogenous peroxidase (30%) for 30 minutes at room temperature, followed by a 5-minute wash with double-distilled H2O. For antigen retrieval, sections were microwaved in a citrate-based antigen unmasking solution (Vector Laboratories; Newark; CA; USA) for 20 minutes with brief pauses to avoid boiling. After allowing slides to cool in the antigen unmasking solution for 1 hour at room temperature, sections were permeabilized by incubating with 0.2% Triton-X for 30 minutes on a shaking rocker at room temperature, then blocked by incubating with 0.2% Triton-X, 5% normal donkey serum (ab7475; Abcam; Cambridge; MA; USA) and fish skin gelatin (FSG; Sigma Aldrich) for 1 hour. […]"}, "[8]": {"tested_on": "Su+CH mouse model of PH", "test": "RVSP measurement after acute treatment", "type": "in vivo", "protocol": "as §1, §2"}, "[9]": {"test": "Cardiac functional magnetic resonance imaging", "type": "in vivo, mouse", "conditions": "acute SKA-31 administration"}, "[10]": {"conditions": "30 mg·kg−1 i.p. twice a day for 7 days"}}, "note": "Entries after “also recorded” stand apart in the source; their conditions may differ.", "data": [{"smiles": "CCn1c(=O)n(CC)c2c(Cl)c(Cl)ccc21", "note": "[NS4591]", "values": [{"measurement": "Dilatory response of large PAs after chronic hypoxia", "setting": "[1]", "value": "decreases"}]}, {"smiles": "CCCCC[C@H](O)/C=C/[C@@H]1[C@@H](C/C=C\\CCCC(=O)O)[C@H]2CO[C@@H]1C2", "note": "[U46619]", "values": [{"measurement": "Arteries showing a constriction", "setting": "[2]; U46619 30 nmol/L, both normal and PH groups", "value": "More than 95%"}]}, {"smiles": "NC(=NCCC[C@H](N)C(=O)O)N[N+](=O)[O-]", "note": "[L-NNA]", "values": [{"measurement": "Constriction of PAs from Su+CH mice", "setting": "[2]; L-NNA 100 μmol/L, Su+CH mice", "value": "unable constrict"}, {"measurement": "Constriction of PAs from N mice", "setting": "[2]; L-NNA 100 μmol/L, normoxic mice", "value": "~20", "unit": "%"}]}, {"smiles": "Clc1ccccc1C(c1ccccc1)(c1ccccc1)n1cccn1", "note": "[TRAM-34]", "values": [{"measurement": "Constriction of small PAs", "setting": "[2]; TRAM-34 1 μmol/L and Apa 300 nmol/L applied together, not different between N and Su+CH mice", "value": "~10", "unit": "%"}, {"measurement": "Effect on NS309-induced outward currents in SMCs", "setting": "[3]", "value": "did not reduce"}]}, {"smiles": "Nc1nc2c(ccc3ccccc32)s1", "note": "[SKA-31, naphtho[1,2-d]thiazol-2-ylamine]", "values": [{"measurement": "Potency as activator of IK/SK channels relative to NS309", "setting": "[4]", "value": "less potent"}, {"measurement": "Metabolism", "setting": "[5]; reason for in vivo use instead of NS309, reference (33)", "value": "favorable metabolism"}, {"measurement": "Half-life in vivo", "setting": "[5]; references (37, 38)", "value": "longer half-life"}, {"measurement": "Resting systemic blood pressure", "setting": "[6]", "value": "lowered"}, {"measurement": "Collagen content of PAs (Masson's Trichrome) in Su+CH mice", "setting": "[7]; [10]", "value": "reduced"}, {"measurement": "Fulton index (right ventricular hypertrophy) in Su+CH mice, chronic treatment", "setting": "[7]; [10]", "value": "significantly lowered; also recorded: reduced"}, {"measurement": "α-actin immunostaining of PAs in Su+CH mice", "setting": "[7]; [10]", "value": "reduced"}, {"measurement": "RVSP in Su+CH mice, chronic treatment", "setting": "[7]; 30 mg·kg−1 i.p. twice a day for 7 days, fourth week of Su+CH", "value": "significantly lowered"}, {"measurement": "Pulmonary artery lesions in Su+CH mice, chronic treatment", "setting": "[7]; chronic SKA-31", "value": "reduced"}, {"measurement": "RVSP in Su+CH mice, acute treatment", "setting": "[8]; 30 mg·kg−1 i.p., RVSP before and 20 minutes after injection, Su+CH mice", "value": "significantly reduced; also recorded: lowered"}, {"measurement": "RVSP in normal (N) mice, acute treatment", "setting": "[8]; 30 mg·kg−1 i.p., normoxic/control mice", "value": "not in N mice; also recorded: not observed in normal mice; also recorded: not in control mice"}, {"measurement": "PAP in Su+CH mice, acute treatment", "setting": "[8]; acute SKA-31, Su+CH mice but not control mice", "value": "lowered"}, {"measurement": "Cardiac output", "setting": "[9]", "value": "does not alter"}, {"measurement": "Ejection fraction", "setting": "[9]", "value": "does not alter"}, {"measurement": "Heart rate", "setting": "[9]", "value": "does not alter"}, {"measurement": "Stroke volume", "setting": "[9]", "value": "does not alter"}]}, {"smiles": "Nc1ncnc2c1ncn2[C@@H]1O[C@H](COP(=O)(O)OP(=O)(O)OP(=O)(O)O)[C@@H](O)[C@H]1O", "note": "[ATP, adenosine triphosphate]", "values": [{"measurement": "Dilation of PAs from CH+Su mice", "setting": "[2]; CH+Su mice", "value": "unable to dilate"}]}]}
